The source of these data is patent US4923802A, “Peptide substrates for the detection, characterization and purification of protein kinase C” (Immunex Corporation, priority 1985, dated 1990).

Test [1] has as its system protein kinase C. The experiment in a line: Direct assay for protein kinase C: phosphorylation of peptide substrate with (gamma 32P) ATP, phosphocellulose filter counting. The format is biochemical, rat. The procedure: The peptide substrate of the present invention may be employed to assay for the presence of protein kinase C, for instance, during the above-outlined process of preparing the enzyme. The assay is based on the phosphorylation of the peptide substrate by protein kinase C. In the assay, the sample to be tested is mixed together with the peptide substrate, radiolabeled ATP, Ca^2+, phospholipid and diacylglycerol. The mixture is incubated for only a brief period to insure linearity of the reaction and then spotted onto phosphocellulose filter paper. The level of radioactivity on the filter is measured, for instance by liquid scintillation spectrometry. The level of radiation is indicative of the extent to which the substrate has been phosphorylated, which in turn is indicative of the amount of protein kinase C present in the sample being assayed. As can be appreciated, by use of the peptide substrate for the present invention, the presence of protein kinase C may be conveniently and rapidly assayed.
Protein kinase C was prepared from the brains of eight rats each having a weight of from 150 to 200 grams. The rats are sacrificed by cervical dislocation. The brains of the rats are removed and placed in eight volumes of ice-cold buffer A (40 ml), composed of the following: 20 mM 4-(2-hydroxyethyl)-1-piperazineethanesulfonic acid ("HEPES"), pH 7.5; 0.3 M sucrose; 2 mM ethyl-enediaminetetracetic acid ("EDTA"); 10 mM ethylene glycol bis(B -aminoethylether)-N, N, N', N'-tetraacetic acid ("EGTA"); 2 mM dithiothreitol ("DDT"); 1 mM phenylmethylsulfonyl; 10 ug/ml pepstatin A; 10 ug/ml soybean tripsyn inhibitor; 10 ug/ml leupeptin; and 10 uM E-64 (Peninsula Labs). E 64 is an inhibitor of CA^2+ -activated proteases. The brains are homogenized with 5 strokes of teflon-glass homogenizer and centrifuged for one hour at 100,000×g in a Ti 75 rotor. The resulting supernatant is saved and adjusted to a conductivity of 0.7-0.9 mmho. […]

Test [2] concerns protein kinase C. The settings on record: cited from earlier work.

Entries after “also recorded” stand apart in the source; their conditions may differ. Ends that are not written are not given here.

With “LRRASLG [Kemptide, Leu-Arg-Arg-Ala-Ser-Leu-Gly]”, the “reaction rate (rate of phosphorylation)” value in test [1] (peptide concentration 1 mM) is listed as 20 pmole PO4 /min. Moreover, the “Km (in words)” value in test [1] (protein kinase C, no saturation at 3 mM) is recorded as “so high that it could not be determined; also recorded: too high to be determined”. The “saturation of protein kinase C with substrate” value in test [1] (up to 3 mM peptide) is “not saturated; also recorded: will not saturate”.

On to RRKASGPPV, for which, in test [2] (peptide concentration 450 μM), the rate of reaction is on record as 8 pmole PO4 /min. In test [2] (protein kinase C, O'Brian et al., read-out: Km of the reaction), the Km was 130 µM.
